The target in experiment [1] is Serine/threonine-protein kinase 24 (Homo sapiens) (UniProt Q9Y6E0). The experiment is described as follows: Inhibition of STK24 (unknown origin) using fluorescein-labelled Ser/Thr-07 peptide as substrate incubated for 1 hr in presence of ATP at Km concentration by Z-LYTE assay.
Experiment [2] has as its system MM1.S. The experiment is described as follows: Upregulation of YAP1 protein level in human MM1.S cells at 1 to 10 uM measured after 16 hrs by Western blot analysis. The class given is functional, cell-based. The following applies: dose 1-10 µM.
Experiment [3] deals with Casein kinase I isoform epsilon (Homo sapiens) (UniProt P49674). Briefly: Inhibition of wild-type human full length CSNK1E (M1 to K416 residues) expressed in bacterial expression system by Kinomescan method.
The target of experiment [4] is Casein kinase I isoform gamma-3 (Homo sapiens) (UniProt Q9Y6M4). Briefly: Inhibition of wild-type human full length CSNK1G3 (M1 to K447 residues) expressed in bacterial expression system by Kinomescan method.
Experiment [5] addresses Interleukin-1 receptor-associated kinase 1 (Homo sapiens) (UniProt P51617). Briefly: Inhibition of wild-type human partial length IRAK1 (R194 to S712 residues) expressed in mammalian expression system by Kinomescan method.
The target in experiment [6] is Serine/threonine-protein kinase 26 (Homo sapiens) (UniProt Q9P289). The experiment is described as follows: Inhibition of MST4 (unknown origin) using fluorescein-labelled Ser/Thr-07 peptide as substrate incubated for 1 hr in presence of ATP at Km concentration by Z-LYTE assay.
Experiment [7] has as its target T1, Serine/threonine-protein kinase 4 (Homo sapiens) (UniProt Q13043).
T1 sequence (whole entry): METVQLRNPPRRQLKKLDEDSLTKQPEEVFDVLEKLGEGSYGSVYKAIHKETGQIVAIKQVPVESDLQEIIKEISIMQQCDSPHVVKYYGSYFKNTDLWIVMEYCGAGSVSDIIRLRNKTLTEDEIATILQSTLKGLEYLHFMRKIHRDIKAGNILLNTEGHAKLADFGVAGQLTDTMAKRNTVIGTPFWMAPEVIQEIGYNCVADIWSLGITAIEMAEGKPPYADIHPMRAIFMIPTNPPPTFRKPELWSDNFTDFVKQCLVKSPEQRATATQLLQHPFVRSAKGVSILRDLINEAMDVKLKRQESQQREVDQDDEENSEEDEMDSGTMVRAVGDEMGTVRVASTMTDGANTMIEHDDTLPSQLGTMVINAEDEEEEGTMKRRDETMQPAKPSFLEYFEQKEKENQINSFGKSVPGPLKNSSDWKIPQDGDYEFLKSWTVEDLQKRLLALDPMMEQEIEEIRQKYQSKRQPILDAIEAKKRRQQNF
The experiment is described as follows: Inhibition of STK4 (unknown origin) using fluorescein-labelled Ser/Thr-07 peptide as substrate incubated for 1 hr in presence of ATP at Km concentration by Z-LYTE assay.

For experiment [8], the system named is MM1.S. The experiment is described as follows: Downregulation of phosphorylated-MOB1 protein level in human MM1.S cells at 1 to 10 uM measured after 6 hrs by Western blot analysis. It counts as functional, cell-based. The following applies: dose 1-10 µM.
Another experiment deals with NCI-H929. The experiment is described as follows: Upregulation of YAP1 protein level in human NCI-H929 cells at 1 to 10 uM measured after 16 hrs by Western blot analysis. The class given is functional, cell-based. Particulars: dose 1-10 µM.
Experiment [9] has as its target T2, Serine/threonine-protein kinase 3 (Homo sapiens) (UniProt Q13188).
T2 sequence (whole entry): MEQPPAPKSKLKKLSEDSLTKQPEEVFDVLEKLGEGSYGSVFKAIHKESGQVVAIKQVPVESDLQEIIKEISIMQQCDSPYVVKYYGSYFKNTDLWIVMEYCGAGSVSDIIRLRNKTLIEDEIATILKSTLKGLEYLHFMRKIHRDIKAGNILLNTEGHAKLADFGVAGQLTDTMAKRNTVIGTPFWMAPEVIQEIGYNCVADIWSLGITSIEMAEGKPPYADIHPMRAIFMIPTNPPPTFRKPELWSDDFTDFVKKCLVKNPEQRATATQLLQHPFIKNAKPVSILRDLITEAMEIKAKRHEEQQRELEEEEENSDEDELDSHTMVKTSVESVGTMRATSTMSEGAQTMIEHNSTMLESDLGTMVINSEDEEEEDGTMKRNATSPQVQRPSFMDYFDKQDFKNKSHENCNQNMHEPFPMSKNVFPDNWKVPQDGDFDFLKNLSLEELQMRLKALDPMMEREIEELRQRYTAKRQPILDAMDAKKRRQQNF
Briefly: Inhibition of wild-type human partial length MST2 (D17 to E318 residues) expressed in bacterial expression system by Kinomescan method.

Experiment [10] addresses T2, Serine/threonine-protein kinase 3 (Homo sapiens). The experiment is described as follows: Inhibition of STK3 (unknown origin) using fluorescein-labelled Ser/Thr-07 peptide as substrate incubated for 1 hr in presence of ATP at Km concentration by Z-LYTE assay.

IC50, Activity and Kd data for one compound are collected here from ChEMBL document CHEMBL4804281, “STK4 inhibitors for treatment of hematologic malignancies” (2020).

Calls of active or inactive are those of the source. No cut-off for these calls is given here. Where only a bound is given, the exact number is not on record here.

Interleukin-1 receptor-associated kinase 1 (Homo sapiens), sequence (P51617 whole entry, looked up, the tested form may be a part): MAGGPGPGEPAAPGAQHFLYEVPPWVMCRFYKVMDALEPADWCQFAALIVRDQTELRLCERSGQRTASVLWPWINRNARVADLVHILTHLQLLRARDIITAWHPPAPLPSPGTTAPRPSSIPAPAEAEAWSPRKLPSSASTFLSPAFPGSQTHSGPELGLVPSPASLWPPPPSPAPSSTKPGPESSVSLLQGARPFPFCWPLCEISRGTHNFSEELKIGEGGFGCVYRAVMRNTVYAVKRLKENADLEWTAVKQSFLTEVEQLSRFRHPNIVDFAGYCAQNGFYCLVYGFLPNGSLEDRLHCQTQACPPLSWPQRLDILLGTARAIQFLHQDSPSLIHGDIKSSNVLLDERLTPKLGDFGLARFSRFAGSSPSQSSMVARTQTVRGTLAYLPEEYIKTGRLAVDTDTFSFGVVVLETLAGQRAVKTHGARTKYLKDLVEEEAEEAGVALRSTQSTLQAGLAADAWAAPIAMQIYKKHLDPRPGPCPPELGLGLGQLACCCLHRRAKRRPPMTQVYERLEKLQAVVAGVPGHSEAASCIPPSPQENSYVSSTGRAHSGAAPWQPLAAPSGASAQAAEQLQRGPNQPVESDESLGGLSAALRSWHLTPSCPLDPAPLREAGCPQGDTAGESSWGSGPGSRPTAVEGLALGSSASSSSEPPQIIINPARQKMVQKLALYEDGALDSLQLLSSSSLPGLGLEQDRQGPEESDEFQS
Serine/threonine-protein kinase 24 (Homo sapiens), sequence (Q9Y6E0 whole entry, looked up): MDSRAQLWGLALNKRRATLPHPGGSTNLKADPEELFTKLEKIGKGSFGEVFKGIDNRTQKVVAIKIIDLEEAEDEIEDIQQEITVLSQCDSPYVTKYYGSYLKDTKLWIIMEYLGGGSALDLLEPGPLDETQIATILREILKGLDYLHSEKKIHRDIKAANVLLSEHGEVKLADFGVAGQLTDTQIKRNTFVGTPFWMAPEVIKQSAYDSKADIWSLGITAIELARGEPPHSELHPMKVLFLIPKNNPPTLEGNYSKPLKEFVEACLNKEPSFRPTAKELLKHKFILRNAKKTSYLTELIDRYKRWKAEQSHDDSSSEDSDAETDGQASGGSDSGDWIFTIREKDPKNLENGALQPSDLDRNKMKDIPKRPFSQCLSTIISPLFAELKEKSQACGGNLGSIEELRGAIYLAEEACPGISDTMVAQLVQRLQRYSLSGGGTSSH
Serine/threonine-protein kinase 26 (Homo sapiens), sequence (Q9P289 2-416 limits assumed): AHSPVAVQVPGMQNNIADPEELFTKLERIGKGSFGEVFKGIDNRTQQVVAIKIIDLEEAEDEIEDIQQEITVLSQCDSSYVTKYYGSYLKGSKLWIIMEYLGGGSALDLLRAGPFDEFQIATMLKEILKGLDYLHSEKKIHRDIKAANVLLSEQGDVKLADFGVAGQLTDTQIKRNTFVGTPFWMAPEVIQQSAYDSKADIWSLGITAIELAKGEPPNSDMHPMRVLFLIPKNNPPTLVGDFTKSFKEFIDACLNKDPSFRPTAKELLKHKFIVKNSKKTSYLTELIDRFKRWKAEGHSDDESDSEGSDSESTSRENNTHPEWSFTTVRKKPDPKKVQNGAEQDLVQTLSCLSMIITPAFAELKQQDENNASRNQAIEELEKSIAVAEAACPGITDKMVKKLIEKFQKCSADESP
Casein kinase I isoform epsilon (Homo sapiens), sequence (P49674 whole entry, looked up, the tested form may be a part, canonical isoform): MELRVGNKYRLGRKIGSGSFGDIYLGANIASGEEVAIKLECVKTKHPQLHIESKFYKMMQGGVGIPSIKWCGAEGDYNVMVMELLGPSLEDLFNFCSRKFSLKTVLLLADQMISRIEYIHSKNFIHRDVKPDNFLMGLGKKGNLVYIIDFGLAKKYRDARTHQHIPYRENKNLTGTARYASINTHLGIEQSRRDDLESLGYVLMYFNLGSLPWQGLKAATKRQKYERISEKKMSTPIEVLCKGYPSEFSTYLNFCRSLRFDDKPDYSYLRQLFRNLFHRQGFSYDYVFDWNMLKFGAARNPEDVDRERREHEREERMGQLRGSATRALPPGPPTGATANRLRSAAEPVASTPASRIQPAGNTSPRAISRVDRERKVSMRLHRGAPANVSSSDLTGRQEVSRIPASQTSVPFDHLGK
Casein kinase I isoform gamma-3 (Homo sapiens), sequence (Q9Y6M4 whole entry, looked up, the tested form may be a part, canonical isoform): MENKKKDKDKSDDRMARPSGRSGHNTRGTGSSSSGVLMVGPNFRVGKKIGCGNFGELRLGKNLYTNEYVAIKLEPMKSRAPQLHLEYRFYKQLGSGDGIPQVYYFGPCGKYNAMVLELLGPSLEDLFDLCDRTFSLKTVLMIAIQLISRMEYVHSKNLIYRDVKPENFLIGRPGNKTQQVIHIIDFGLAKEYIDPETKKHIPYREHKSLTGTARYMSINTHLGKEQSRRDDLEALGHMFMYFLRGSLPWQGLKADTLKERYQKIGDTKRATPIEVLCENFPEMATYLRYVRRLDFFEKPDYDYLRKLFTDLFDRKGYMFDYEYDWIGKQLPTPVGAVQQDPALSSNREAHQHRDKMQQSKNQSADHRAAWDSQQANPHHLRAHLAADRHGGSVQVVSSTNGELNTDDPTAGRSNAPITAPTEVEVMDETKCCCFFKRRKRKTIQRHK

Regarding `Nc1ncc(-c2cc([N+](=O)[O-])ccc2F)cc1-c1ccc2c(c1)CCNC2=O`, the IC50 in experiment [1] is over 900 nM; in experiment [6], over 900 nM; in [7] it was under 40 nM; in [10], 40 nM. The result in the experiment with MM1.S [2], with MM1.S [8] and with NCI-H929 was Active. Also, the dissociation constant Kd in [3] was 201 nM; in [4], 4.68 nM; in [5] it was 110 nM; in experiment [9], 42.6 nM.
